Assay results: ChEMBL document CHEMBL4368854, “Assessment of a bifendate derivative bearing a 6,7-dihydro-dibenzo[c,e]azepine scaffold as a potential anti-metastatic agent” (Medchemcomm, 2018)
The source made the active and inactive calls. No cut-off for these calls is given here.

Tests used:
[1] = tested on: MDA-MB-231; assay: Antimigratory activity against human MDA-MB-231 cells assessed as reduction in cell migration towards wound area at 45 uM measured up to 24 hrs by inverted microscopic analysis; assay type: functional, cell-based
[2] = tested on: MDA-MB-231; assay: Antimigratory activity against human MDA-MB-231 cells at 15 uM after 24 hrs by crystal violet staining based transwell assay relative to control; assay type: functional
[3] = tested on: MDA-MB-231; assay: Anti-invasive activity against human MDA-MB-231 cells at 15 uM after 24 hrs by crystal violet staining based matrigel coated transwell assay relative to control; assay type: functional
[4] = tested on: MDA-MB-231; assay: Cytotoxicity against human MDA-MB-231 cells after 72 hrs by MTT assay; assay type: functional, cell-based; details: MDA-MB-231, 72 h
[5] = tested on: MDA-MB-231; assay: Down regulation of MMP2 expression in human MDA-MB-231 cells after 24 hrs by Western blot analysis; assay type: functional, cell-based
[6] = tested on: MDA-MB-231; assay: Anti-invasive activity against human MDA-MB-231 cells at 45 uM after 24 hrs by crystal violet staining based matrigel coated transwell assay relative to control; assay type: functional
[7] = tested on: MDA-MB-231; assay: Down regulation of MMP9 expression in human MDA-MB-231 cells after 24 hrs by Western blot analysis; assay type: functional, cell-based
[8] = molecular target: Matrix metalloproteinase-9 (Homo sapiens) (UniProt P14780); assay: Inhibition of MMP9 activity in human MDA-MB-231 cells at 45 uM measured after 24 hrs by coomassie brilliant blue staining based gelatin zymographic method; assay type: cell-based
Chain of Matrix metalloproteinase-9 (Homo sapiens) (P14780 whole entry): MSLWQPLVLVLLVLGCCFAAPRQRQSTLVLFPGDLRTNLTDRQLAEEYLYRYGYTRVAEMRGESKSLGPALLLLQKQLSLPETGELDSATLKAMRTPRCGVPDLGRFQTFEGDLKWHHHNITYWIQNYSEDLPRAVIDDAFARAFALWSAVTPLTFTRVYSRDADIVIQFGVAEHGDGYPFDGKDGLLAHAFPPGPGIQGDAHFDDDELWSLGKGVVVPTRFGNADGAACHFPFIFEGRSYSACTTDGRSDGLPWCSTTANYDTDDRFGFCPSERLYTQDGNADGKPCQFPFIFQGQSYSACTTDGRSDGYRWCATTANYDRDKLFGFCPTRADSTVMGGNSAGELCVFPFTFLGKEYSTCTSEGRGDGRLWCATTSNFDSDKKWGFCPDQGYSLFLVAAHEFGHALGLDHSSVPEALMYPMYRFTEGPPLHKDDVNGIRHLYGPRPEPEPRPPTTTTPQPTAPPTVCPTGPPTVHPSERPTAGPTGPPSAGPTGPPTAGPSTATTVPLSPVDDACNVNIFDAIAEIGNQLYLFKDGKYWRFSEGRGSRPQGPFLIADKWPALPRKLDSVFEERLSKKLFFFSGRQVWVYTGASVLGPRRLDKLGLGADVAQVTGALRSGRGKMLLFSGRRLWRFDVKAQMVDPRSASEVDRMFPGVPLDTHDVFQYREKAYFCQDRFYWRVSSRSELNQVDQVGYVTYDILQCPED

[9] = tested on: MDA-MB-231; assay: Antimigratory activity against human MDA-MB-231 cells assessed as reduction in cell migration towards wound area at 5 to 45 uM measured up to 24 hrs by inverted microscopic analysis; assay type: functional, cell-based
[10] = tested on: MDA-MB-231; assay: Antimigratory activity against human MDA-MB-231 cells at 45 uM after 24 hrs by crystal violet staining based transwell assay relative to control; assay type: functional
[11] = molecular target: 72 kDa type IV collagenase (Homo sapiens) (UniProt P08253); assay: Inhibition of MMP2 activity in human MDA-MB-231 cells at 45 uM measured after 24 hrs by coomassie brilliant blue staining based gelatin zymographic method; assay type: cell-based
Chain of 72 kDa type IV collagenase (Homo sapiens) (P08253 110-660 limits assumed): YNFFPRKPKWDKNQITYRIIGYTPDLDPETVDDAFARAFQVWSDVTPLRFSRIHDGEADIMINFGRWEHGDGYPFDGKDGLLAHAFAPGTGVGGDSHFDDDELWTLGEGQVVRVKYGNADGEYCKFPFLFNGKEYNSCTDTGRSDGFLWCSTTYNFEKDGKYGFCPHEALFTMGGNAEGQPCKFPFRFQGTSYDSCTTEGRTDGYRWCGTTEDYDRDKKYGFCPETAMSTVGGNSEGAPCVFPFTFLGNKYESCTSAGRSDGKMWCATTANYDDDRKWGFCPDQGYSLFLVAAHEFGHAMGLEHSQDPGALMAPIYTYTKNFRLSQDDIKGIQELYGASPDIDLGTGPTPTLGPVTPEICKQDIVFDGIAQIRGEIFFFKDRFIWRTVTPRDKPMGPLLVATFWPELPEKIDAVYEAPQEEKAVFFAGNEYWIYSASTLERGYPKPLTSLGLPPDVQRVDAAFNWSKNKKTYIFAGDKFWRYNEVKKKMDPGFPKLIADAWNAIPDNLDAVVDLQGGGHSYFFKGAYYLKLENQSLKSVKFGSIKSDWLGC

[12] = molecular target: 72 kDa type IV collagenase (Homo sapiens) (UniProt P08253); assay: Inhibition of MMP2 activity in human MDA-MB-231 cells measured after 24 hrs by coomassie brilliant blue staining based gelatin zymographic method; assay type: cell-based
[13] = molecular target: Matrix metalloproteinase-9 (Homo sapiens) (UniProt P14780); assay: Inhibition of MMP9 activity in human MDA-MB-231 cells measured after 24 hrs by coomassie brilliant blue staining based gelatin zymographic method; assay type: cell-based

inhibition [8]	inhibition [11]	inhibition [12]	inhibition [13]	SMILES	Activity [1]	Activity [2]	Activity [3]	IC50 [4]	Activity [5]	Activity [6]	Activity [7]	Activity [9]	Activity [10]
–	–	–	–	COC(=O)c1cc(OC)c2c(c1-c1c(C(=O)OC)cc(OC)c3c1OCO3)OCO2	Active	–	–	–	–	–	–	–	–
30.8%	56.9%	Dose-dependent effect	Dose-dependent effect	COc1cc2c(c3c1OCO3)-c1c(cc(OC)c3c1OCO3)CN(CCc1ccc3c(c1)OCO3)C2	–	32.9%	<=54.4%	88 µM	Dose-dependent effect	71.2%	Dose-dependent effect	Active	47.5%
